The target in assay [1] is T1, CYP1A2 (Homo sapiens, UniProt P05177).
T1 sequence (P05177 1-516): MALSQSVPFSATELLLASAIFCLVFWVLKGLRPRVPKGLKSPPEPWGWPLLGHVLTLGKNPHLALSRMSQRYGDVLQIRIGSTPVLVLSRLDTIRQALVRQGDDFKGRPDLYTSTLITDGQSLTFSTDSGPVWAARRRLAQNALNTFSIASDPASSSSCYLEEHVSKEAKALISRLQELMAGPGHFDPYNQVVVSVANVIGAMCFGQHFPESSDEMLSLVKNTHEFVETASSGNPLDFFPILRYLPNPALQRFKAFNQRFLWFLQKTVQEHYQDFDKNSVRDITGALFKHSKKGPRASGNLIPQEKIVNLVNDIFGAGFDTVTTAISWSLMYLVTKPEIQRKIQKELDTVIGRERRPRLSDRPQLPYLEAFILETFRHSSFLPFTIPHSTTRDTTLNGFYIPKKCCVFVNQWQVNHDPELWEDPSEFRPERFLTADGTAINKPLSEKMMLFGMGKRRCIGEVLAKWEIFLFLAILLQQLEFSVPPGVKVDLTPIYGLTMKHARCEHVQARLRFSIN
As to the kind of experiment: CYP1A2 inhibition (fluorescent substrate CEC). Type of assay: in vitro ADME. The conditions noted are these: read-out: Cyp IC50 1A2. The procedure, abridged: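 Test compound titrated 1:1 across ten concentrations; metabolite fluorescence measured after 37 °C incubation of 15 min (CYP1A2), 30 min (CYP2C19, CYP2D6) or 45 min (CYP2C9). IC50 from signal versus concentration.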

Assay [2] has as its system SKNSH cells. Nature of the assay: SKNSH (human neuroblastoma) cell proliferation assay (ATPlite). It counts as cell-based. The conditions noted are these: SK-N-SH, read-out: Inhibition of Cell Proliferation IC50, SKNSH. Here is the method:
Compounds are assessed in a variety of cell based assays. For example BaF3 cells engineered with any of BCR-FMS, BCR-KIT, BCR-FLT3, BCR-NTRK1, BCR-NTRK2, and BCR-NTRK3, are used in cell proliferation assays to assess inhibitory activity of Fms, Kit, Flt-3, TrkA, TrkB, and TrkC, respectively. An MV-4-11 (leukemia) cell proliferation assay is used to assess inhibitory activity in Flt-3, and SKNSH (human neuroblastoma) cell proliferation assay is used to assess efficacy of Fms/Trk inhibitors. Additional cells may be assayed similarly to assess the efficacy of Fms/Trk inhibitors, such as MiaPaCa (human pancreatic cancer) and Capan-1 (human pancreatic carcinoma) cells. Reagent and assay conditions are as follows: • BaF3 cells: • Maintained in RPMI containing 10% FBS, 1% PenStrep, 1% NEAA, and 1% L-Glutamine, supplemented with 1 mg/mL G418 and 5% WEHI-CM (or recombinant murine IL-3). • Confluent cells are split 1:50 to 1:100 every 3-4 days. • MV-4-11 cells: • Maintained in Iscove's Modified Dulbecco's Medium containing 10% FBS. • Confluent cells are split 1:4 every 3-4 days. • SKNSH cells: RPMI containing 10% FBS. On day 1, cells are counted, then centrifuged in a conical tube for 5 minutes at 1000 rpm. The supernatant is removed and cells are re-suspended as follows: • BaF3: resuspend in growth media +1 mg/mL G418 (without WEHFIL-3) to 2×10^5 cells/mL. • MV-4-11: resuspend in growth media to 5×10^5 cells/mL. • SKNSH: resuspend in growth media to 2×10^4 cells/mL. The cells are plated (50 μL, 150 μL for SKNSH cells) in each well of a 96-well dish (Corning 3610) and incubated at 37° C. in 5% CO2 overnight, cells plated to a final concentration of cells as follows: • BaF3: 10,000 cells per well. • MV-4-11: 25,000 cells per well. • SKNSH: 3,000 cells per well. On day 2, compound at a maximum concentration of 5 mM is serially diluted 1:3 for a total of 8 point titration with DMSO as a control. A 1 μL aliquot of each dilution point is added to 249 μL growth media and 50 μL is added to a well containing cells, providing 10 μM compound for the maximum concentration point. The cells are incubated for 3 days at 37° C. in 5% CO2. For SKNSH cells, a 0.75 μL aliquot of appropriate dilution in DMSO is added to 150 μL of cells. On day 5, ATPlite 1 step Luminescence Assay System (Perkin Elmer #6016739) is brought to room temperature along with the cell cultures. ATPlite is added to each well as follows: • BaF3: 25 μL per well. • MV-4-11: 40 μL per well. • SKNSH: 20 μL per well. The cells are incubated at room temperature for 10 minutes, then luminescence is read on Safire reader. The measured luminescence correlates directly with cell number, such that the reading as a function of compound concentration is used to determine the IC50 value.
It is understood that the results of these assays may vary as assay conditions are varied. Inhibition levels determined under the conditions described herein represent a relative activity for the compounds tested under the specific conditions employed. The cell based assays are likely to show variability due to the complexity of the system and the sensitivity thereof to any changes in the assay conditions. […] Results for compounds that are tested and show substantially no inhibition below the highest tested concentration are represented as “-” in the tables below. In some instances, the compounds were not tested in all of the assays, or assay results were not valid, as indicated by NA in the tables below.

Regarding `CCNc1ncnc2[nH]cc(C(=O)c3ccc(Nc4ccc(CC)nc4)nc3F)c12` [Compound P-4123, [4-(ethylamino)-7H-pyrrolo[2,3-d]pyrimidin-5-yl]-[6-[(6-ethyl-3-pyridyl)amino]-2-fluoro-3-pyridyl]methanone], the IC50 was more than 10 µM in assay [1] and less than 0.1 µM in assay [2].
Take `CCc1ccc(Nc2ccc(C(=O)c3c[nH]c4ncnc(NC)c34)c(F)n2)cn1` [Compound P-4124, [6-[(6-ethyl-3-pyridyl)amino]-2-fluoro-3-pyridyl]-[4-(methylamino)-7H-pyrrolo[2,3-d]pyrimidin-5-yl]methanone]: the results for the IC50 in assay [1] and in assay [2] were less than 5 µM and less than 1 µM, respectively.
The matching figures for `COc1ccc(Nc2ccc(C(=O)c3c[nH]c4ncnc(NC5CC5)c34)c(F)n2)cn1` [Compound P-4126, [4-(cyclopropylamino)-7H-pyrrolo[2,3-d]pyrimidin-5-yl]-[2-fluoro-6-[(6-methoxy-3-pyridyl)amino]-3-pyridyl]methanone]: less than 5 µM and less than 0.1 µM.
The matching figures for `Fc1cc(Cc2c[nH]c3ncnc(NC4CC4)c23)cnc1NC1CCC(F)(F)CC1` [Compound P-4127, N-cyclopropyl-5-[[6-[(4,4-difluorocyclohexyl)amino]-5-fluoro-3-pyridyl]methyl]-7H-pyrrolo[2,3-d]pyrimidin-4-amine]: more than 10 µM and less than 10 µM.

Values taken from patent publication US8901118B2, “Compounds and methods for kinase modulation, and indications therefor” (Plexxikon Inc., priority 2010, dated 2014).
